The values below come from US8372840B2, “Potassium channel blockers” (Xention Limited, priority 2008, dated 2013).

For one assay, the target named is T1, human Kv1.3 (Homo sapiens, UniProt P22001).
T1 construct: expressed in transfected cells; host or cells: stably transfected cells grown in medium for CHO cells
The experiment in a line: Kv1.3 Autopatch Electrophysiology (whole cell patch-clamp, stably transfected CHO cells). It is filed as cell-based. Particulars: compound 1 μM, step to +30 mV for 500 ms, inhibition of total charge relative to control, room temperature; for inhibition at 1 µM: CHO, read-out: hKv1.3 % inh. On the procedure:
Cells stably transfected with cDNA for human Kv1.3 (in pcDNA3.1) were grown in Ex-cell 302 serum-free medium for CHO cells, supplemented with 10 μl/ml [100×] glutamine, 500 μg/ml G418 ([…]), and 1% HT supplement (50×, hypoxanthine and thymidine). Compounds were tested on these cells using the AutoPatch technology in whole cell mode.
The external bathing solution contained (in mM): 150 NaCl, 10 KCl, 1 MgCl2, 3 CaCl2, 10 HEPES, pH 7.4 with NaOH. Patch pipettes were filled with an electrode solution of composition (in mM): 100 K-Gluconate, 20 KCl, 1 MgCl2, 1 CaCl2, 10 HEPES, 11 EGTA, 5 ATP-Na2, 2 Glutathione pH 7.2 with KOH.
Compounds were dissolved in DMSO (100%) and made up in the external bather at a concentration of 1 μM immediately prior to use. All experiments were conducted at room temperature.
A cell suspension (10 ml), with a density of 6×10^6 cells, was aliquoted into a 15 ml centrifuge tube and stored at 4° C. before use. Prior to use a tube was taken and centrifuged at 1000 rpm for 4 mins at room temperature. The supernatant was then discarded, leaving a cell pellet at the bottom of the tube. The pellet was then resuspended using 1 ml of cold (4° C.), filtered (0.22 μm), 0.05% BSA/bather solution (0.05 g BSA/100 ml bather). The bottom of the tube was manually agitated followed by gentle tituration. The cell suspension was then placed in the AutoPatch™ temperature controlled cell-hotel at 14° C. and regularly titurated.
A length of Teflon capillary tubing was dipped into the cell suspension solution, and a column of fluid was taken up by negative pressure. The column of fluid was in electrically connectivity with a Ag/AgCl reference electrode. Borosilicate glass patch pipettes (from 1.5 mm OD, thin-walled filamented, GC150-TF capillary glass, Harvard) were pulled using a DMZ pipette puller (Zeitz Instruments), and were back-filled using the internal pipette solution, being careful that no bubbles remained at the tip or in the body of the pipette. Patch pipettes typically had resistances of 2.5-3.5 MΩ. Once filled, the pipette tip and a proportion of the shaft (˜15 mm) were dipped into Sigmacote (Sigma). The recording pipettes were placed in a multiwell array and mounted on the AutoPatch™ machine. Automated patch-clamping and drug-application was initiated by the operator, but thereafter AutoPatch.exe continued the experiment providing that pre-set conditions and criteria were satisfied.
Whole cell patch-clamp recordings were made using the AutoPatch™ rig, which incorporated an EPC9 or EPC10 amplifier (HEKA, Germany) under control of Pulse software (v8.54 or v8.76, HEKA, Germany), a cell applicator, automated drug application system (DAS), valve controller (VF1) and a suction device all at room temperature. This equipment was completely under the control of AutoPatch.exe and operator intervention was only made when there was a requirement to refill the bather reservoirs or to prevent the loss of a cell due to a technical error.
Qualification stages prior to perfusion and drug application ensured that the observed current met the criteria for the experiment. Cells were continuously perfused with external solution at a flow rate of ˜2 ml/minute.
Electrophysiology voltage-step protocols and analysis of data was performed as follows. Data were sampled at 5 kHz, and filtered with a −3 dB bandwidth of 2.5 kHz. Cells were held at a voltage of −80 mV. Currents were evoked by a voltage step to +30 mV for 500 ms in duration applied every 15 s. Online analysis of the hKv1.3 current during the application of compounds was performed by the Pulse (v8.54 or v8.76, HEKA, Germany), Excel (Microsoft, USA) and AutoPatch™ software, with the total charge measured during the whole of voltage step Inhibition of charge movement in the presence of drug was calculated relative to control.

In a further assay the target is hKv1.5 (Homo sapiens, UniProt P22460). Briefly: Kv1.5 Autopatch Electrophysiology (whole cell patch-clamp). It is filed as cell-based. Particulars: compound 1 μM, step to 0 mV for 1000 ms, total charge, room temperature (22-24° C.); for inhibition at 1 µM: read-out: hKv1.5 % inh. On the procedure: The external bathing solution contained (in mM): 150 NaCl, 10 KCl, […], 3 MgCl2, 1 CaCl2, 10 HEPES, pH 7.4. Patch pipettes were filled with an electrode solution of composition (in mM): 160 KCl, 0.5 MgCl2, 10 HEPES, 1 EGTA, pH 7.4 with KOH.
Compounds were dissolved in DMSO (100%) and made up in the external bather at a concentration of 1 μM. All experiments were conducted at room temperature (22-24° C.).
A cell suspension (10 ml), with a density of 100,000 cells/ml, was aliquoted into a 15 ml centrifuge tube and transferred to an incubator (37° C., 5% CO2) for approximately one hour before use. Following 60 min incubation, a tube was taken and centrifuged at 1000 rpm for 4 mins at room temperature. 9.5 ml supernatant was thence discarded, leaving a cell pellet at the bottom of the tube. The pellet was then resuspended using 100 μl of cold (4° C.), filtered (0.22 μm), 0.2% BSA/bather solution (0.02 g BSA/10 ml bather). The bottom of the tube was manually agitated gently until the solution became cloudy with cells. The 100 μl cell resuspension solution was then stored on the bench at 4° C. (using a Peltier-based temperature control device) until used.
A length of capillary glass (1B150E-4, WPI) was dipped into the cell suspension solution, such that ˜3 cm column of fluid was taken up by capillary action. A Ag/AgCl wire was dropped into the non-dipped end of the capillary also. The outside of the solution-filled end of the capillary was then dried and the capillary was loaded into the AutoPatch™
Borosilicate glass patch pipettes (from 1.5 mm OD, thin-walled filamented, GC150-TF capillary glass, Harvard) were pulled using a DMZ pipette puller (Zeitz Instruments), and were back-filled using the internal pipette solution, being careful that no bubbles remain at the tip or in the body of the pipette. Patch pipettes typically had resistances of 2.3-3.5 MΩ. Once filled, the pipette tip and a proportion of the shaft (˜15 mm) were dipped into Sigmacote (Sigma). The recording pipette was then loaded into the AutoPatch™. Automated patch-clamping was initiated by the operator, but thereafter AutoPatch.exe continued the experiment providing that pre-set conditions and criteria were satisfied.
Whole cell patch-clamp recordings were made using the AutoPatch™ rig, which incorporated an EPC9 amplifier (HEKA, Germany) under control of Pulse software (v8.54, HEKA, Germany), a motion controller with 2 translators (Newport, UK), valve controller (VF1) and a c-level suction device all at room temperature (22-24° C.). This equipment was completely under the control of AutoPatch.exe and operator intervention was only made when there was a requirement to refill the drug reservoirs or to prevent the loss of a cell due to a technical error. Cells with an Rseries greater than 18 MΩ were discounted from the experiment.
Qualification stages prior to perfusion and drug application ensured that the observed current met the criteria for the experiment. Only those cells with an IK>500 pA were used for experiments. Cells were continuously perfused with external solution at a flow rate of 1.8-2 ml/minute. […] Online analysis of the hKv1.5 current during the application of compounds was performed by the AutoPatch™ software. Voltage-step protocols and analysis of data was performed as described for conventional electrophysiology.
Electrophysiology voltage-step protocols and analysis of data was performed as follows. Data was sampled at 5 kHz, and filtered with a −3 dB bandwidth of 2.5 kHz. Cells were held at a voltage of −80 mV. Currents were evoked to a voltage step for 1000 ms in duration at 0 mV every 5 s. Currents were analysed using Pulsefit software (v8.54, HEKA, Germany), with the total charge measured during the whole of the voltage step. All other plots were produced using Igor Pro (WaveMetrics).

T1 sequence (P22001 whole entry): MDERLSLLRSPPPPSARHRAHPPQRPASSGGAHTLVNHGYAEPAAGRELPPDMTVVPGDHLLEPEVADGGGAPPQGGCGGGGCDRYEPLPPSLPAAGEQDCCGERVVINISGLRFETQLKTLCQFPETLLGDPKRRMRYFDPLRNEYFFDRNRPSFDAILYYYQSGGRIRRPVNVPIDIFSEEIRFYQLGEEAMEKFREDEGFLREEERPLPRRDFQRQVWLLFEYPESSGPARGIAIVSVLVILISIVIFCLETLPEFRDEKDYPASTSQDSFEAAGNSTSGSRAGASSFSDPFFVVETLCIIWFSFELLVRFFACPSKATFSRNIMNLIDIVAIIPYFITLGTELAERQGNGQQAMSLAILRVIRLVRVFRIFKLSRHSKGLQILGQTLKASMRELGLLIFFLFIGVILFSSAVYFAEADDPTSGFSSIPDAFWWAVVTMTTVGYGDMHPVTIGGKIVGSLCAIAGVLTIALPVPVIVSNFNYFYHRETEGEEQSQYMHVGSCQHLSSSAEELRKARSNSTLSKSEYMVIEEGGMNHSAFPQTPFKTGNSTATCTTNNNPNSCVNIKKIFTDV
hKv1.5, sequence (P22460 whole entry): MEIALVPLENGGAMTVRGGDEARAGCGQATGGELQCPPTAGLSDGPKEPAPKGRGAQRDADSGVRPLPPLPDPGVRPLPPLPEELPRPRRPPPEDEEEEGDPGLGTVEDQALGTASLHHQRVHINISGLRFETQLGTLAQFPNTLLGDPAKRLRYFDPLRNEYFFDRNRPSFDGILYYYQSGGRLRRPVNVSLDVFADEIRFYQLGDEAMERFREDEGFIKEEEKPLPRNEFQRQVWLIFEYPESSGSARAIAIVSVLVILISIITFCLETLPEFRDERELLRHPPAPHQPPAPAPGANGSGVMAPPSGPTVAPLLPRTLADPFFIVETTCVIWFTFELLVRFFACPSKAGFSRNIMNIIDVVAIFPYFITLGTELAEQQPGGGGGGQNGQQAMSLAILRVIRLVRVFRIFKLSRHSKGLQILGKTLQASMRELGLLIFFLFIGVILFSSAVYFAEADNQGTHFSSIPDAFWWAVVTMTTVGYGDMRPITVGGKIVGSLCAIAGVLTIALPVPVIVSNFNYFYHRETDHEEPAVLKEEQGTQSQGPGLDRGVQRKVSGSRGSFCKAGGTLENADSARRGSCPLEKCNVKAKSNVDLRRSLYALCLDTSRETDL

Compound “1-Methyl-1H-pyrazole-3-sulfonic acid (4-chloro-benzyl)-(3-morpholin-4-yl-phenyl)-amide [Example 40]” gave a hKv1.3 % inh. on human Kv1.3 of 99%. In addition, the hKv1.5 % inh. at hKv1.5 turned out to be 95%.

Regarding `O=C1NCCN1c1cccc(N(Cc2ccc(Cl)cc2)S(=O)(=O)c2ccccc2)c1` [Example 46, N-(4-Chloro-benzyl)-N-[3-(2-oxo-imidazolidin-1-yl)-phenyl]-benzenesulfonamide], the inhibition at 1 µM turned out to be 100% at human Kv1.3 and 91% on hKv1.5.

With `O=C1NCCN1c1cccc(N(Cc2ccccc2)S(=O)(=O)c2ccccc2)c1` [Example 1, N-Benzyl-N-[3-(2-oxo-imidazolidin-1-yl)-phenyl]-benzenesulfonamide], the inhibition at 1 µM at human Kv1.3 came to 86%; at hKv1.5, 66%.

“Pyridine-3-sulfonic acid (4-chloro-benzyl)-[3-(2-oxo-imidazolidin-1-ylbenzyl)-[3-(2-oxo-imidazolidin-1-yl)-phenyl]-amide [Example 48]” had a hKv1.3 % inh. on human Kv1.3 of 96%. On hKv1.5, this compound had a hKv1.5 % inh. of 89%.

Take `Cn1ccc(S(=O)(=O)N(Cc2ccc(Cl)cc2)c2cccc(OCc3ccccn3)c2)n1` [Example 6, 1-Methyl-1H-pyrazole-3-sulfonic acid (4-chloro-benzyl)-[3-(pyridin-2-ylmethoxy)-phenyl]-amide]: the results for the inhibition at 1 µM at human Kv1.3 and at hKv1.5 were 91% and 72%, respectively.

At human Kv1.3, “N-[3-(Benzenesulfonyl-benzyl-amino)-phenyl]-acetamide [Example 10]” came in with a hKv1.3 % inh. of 50%. In addition, the hKv1.5 % inh. on hKv1.5 stood at 28%.

At human Kv1.3, “N-Benzyl-3-cyano-4-fluoro-N-[3-(2-oxo-imidazolidin-1-yl)-phenyl]-benzenesulfonamide [Example 44]” showed a hKv1.3 % inh. of 90%. At hKv1.5, this compound yielded a hKv1.5 % inh. of 72%.

`O=S(=O)(c1ccccc1)N(Cc1ccccc1)c1cccc(N2CCN(c3ccccc3)CC2)c1` [Example 5, N-Benzyl-N-[3-(4-phenyl-piperazin-1-yl)-phenyl]-benzenesulfonamide]: the inhibition at 1 µM at human Kv1.3 is 88%; at hKv1.5, 91%.

Take `Cn1ccc(S(=O)(=O)N(Cc2ccc(Cl)cc2)c2cccc(OCC(=O)NC3CC3)c2)n1` [Example 51, 2-{3-[(4-Chloro-benzyl)-(1-methyl-1H-pyrazole-3-sulfonyl)-amino]-phenoxy}-N-cyclopropyl-acetamide]: the inhibition at 1 µM was determined as 83% on human Kv1.3 and 72% on hKv1.5.

As for “4-Methyl-3,4-dihydro-2H-benzo[1,4]oxazine-7-sulfonic acid benzyl-[3-(2-oxo-pyrrolidin-1-yl)-phenyl]-amide [Example 18]”, the hKv1.3 % inh. at human Kv1.3 came out at 65%. The compound also displayed a hKv1.5 % inh. on hKv1.5 of 56%.

In the case of “1-Methyl-1H-imidazole-4-sulfonic acid (4-chloro-benzyl)-(3-morpholin-4-yl-phenyl)-amide [Example 36]”, the hKv1.3 % inh. at human Kv1.3 worked out at 83%. Further, the hKv1.5 % inh. on hKv1.5 is reported as 44%.

In the case of `Cn1ccc(S(=O)(=O)N(Cc2ccc(Cl)cc2)c2cccc(OCC(=O)NC3CCC3)c2)n1` [Example 50, 2-{3-[(4-Chloro-benzyl)-(1-methyl-1H-pyrazole-3-sulfonyl)-amino]-phenoxy}-N-cyclobutyl-acetamide], the inhibition at 1 µM at human Kv1.3 stood at 94%; at hKv1.5, 79%.

As for `COCC(=O)Nc1cccc(N(Cc2ccccc2)S(=O)(=O)c2ccccc2)c1` [Example 12, N-[3-(Benzenesulfonyl-benzyl-amino)-phenyl]-2-methoxy-acetamide], the values for the inhibition at 1 µM at human Kv1.3 and at hKv1.5 were 85% and 58%, respectively.

As to `O=S(=O)(c1ccccc1)N(Cc1ccccc1)c1cccc(N2CCOCC2)c1` [Example 2, N-Benzyl-N-(3-morpholin-4-yl-phenyl)-benzenesulfonamide], the inhibition at 1 µM worked out at 76% at human Kv1.3 and 62% on hKv1.5.

On to `Cc1nc(S(=O)(=O)N(Cc2ccccc2)c2cccc(N3CCOCC3)c2)cn1C` [Example 19, 1,2-Dimethyl-1H-imidazole-4-sulfonic acid benzyl-(3-morpholin-4-yl-phenyl)-amide], for which the values for the inhibition at 1 µM at human Kv1.3 and at hKv1.5 were 75% and 42%, respectively.

For `Cn1ccc(S(=O)(=O)N(Cc2ccccc2)c2cccc(N3CCNC3=O)c2)n1` [Example 43, 1-Methyl-1H-pyrazole-3-sulfonic acid benzyl-[3-(2-oxo-imidazolidin-1-yl)-phenyl]-amide], the inhibition at 1 µM at human Kv1.3 is 72%.

`Cn1cnc(S(=O)(=O)N(Cc2ccc(Cl)cc2)c2ccc(F)c(N3CCCC3=O)c2)c1` [Example 4, 1-Methyl-1H-imidazole-4-sulfonic acid (4-chloro-benzyl)-[4-fluoro-3-(2-oxo-pyrrolidin-1-yl)-phenyl]-amide]: the inhibition at 1 µM at human Kv1.3 amounted to 61%.
